In patent publication US20210308120A1, “Use of Amitriptyline for Blocking Brain Hemichannels and Method for Potentiating its Effect in Vivo” (THERANEXUS, priority 2015, published 2021):

Columns and labels:
[1] = target: T1, Cx43 hemichannels (Mus musculus, UniProt P23242); assay: Hemichannel activity by ethidium bromide uptake in LPS-treated mouse cortical astrocyte cultures; format: cell-based; details: LPS 1 μg/mL and amitriptyline 5, 10 and 20 μM, 24 hours
T1 construct: Astrocyte cultures were prepared from cortex of rats and mice as previously described; endogenous in cells; host or cells: secondary cultures of mouse cortical astrocytes, LPS-treated
T1 sequence (P23242 whole entry): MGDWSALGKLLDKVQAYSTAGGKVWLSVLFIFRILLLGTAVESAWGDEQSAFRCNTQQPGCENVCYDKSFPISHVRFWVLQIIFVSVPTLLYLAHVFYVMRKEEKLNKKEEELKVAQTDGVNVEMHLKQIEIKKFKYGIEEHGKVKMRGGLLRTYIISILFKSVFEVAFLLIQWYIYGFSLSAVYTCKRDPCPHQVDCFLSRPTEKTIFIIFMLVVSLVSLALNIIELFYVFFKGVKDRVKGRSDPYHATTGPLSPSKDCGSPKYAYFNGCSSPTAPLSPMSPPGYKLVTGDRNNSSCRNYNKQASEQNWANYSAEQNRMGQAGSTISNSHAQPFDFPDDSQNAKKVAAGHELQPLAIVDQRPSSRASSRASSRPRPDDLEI
Procedure: Astrocyte cultures were prepared from cortex of rats and mice as previously described (Meme et al., 2006). Cells were seeded on polyornithine coated 35 mm dishes (5×10^5 cells/dish) or into 100-mm diameter plastic dishes at the density of 3×10^6 cells/dish. After 8-10 days, when cells grown into 35 mm in diameter plastic culture dishes have reached confluence, 1 μM of cytosine-arabinoside was added to the culture medium. In addition, when cells grown into 100 mm plastic culture dishes reached confluence, they were harvested with trypsin-EDTA. Then, cells were re-plated (2×10^5 cells per well), as secondary cultures, on glass coverslips placed inside 24-round-well plate. Finally, they were grown to confluence and cytosine-arabinoside was added. Medium was changed twice a week for all cells until the experiments were carried out. Hemichannel activity was evaluated in secondary cultures of cortical astrocytes by Ethidium Bromide (EtBr) uptake as already published (Orellana et al, 2011). 24 h before experiment, cells were pretreated or not with 1 μg/ml LPS known to open Cx43 HeC. The day of experiment, cells were first preincubated in HEPES buffer solution. Then, cells were exposed to 5 μM EtBr for 10 min at room temperature. Cells were then washed with the same buffer before fixation with 4% paraformaldehyde in PBS. Fixed cells were examined at 40× with a confocal laser-scanning microscope. Stacks of 10 consecutive confocal images taken at 0.49 μm intervals were acquired. For each experimental condition, 6 images were captured and then analyzed with Image J program (NIH software). LPS was added to mouse cortical astrocytic cultures during 24 hours to open Cx43 hemichannels and amitriptyline was also added during the same time to evaluate its action on hemichannel activity, quantified by cell uptake of ethidium bromide.

[2] = test system: SN-CCI rats (neuropathic pain, hyperalgesia); assay: Randall & Selitto test in SN-CCI rats, repeated administration every 150 minutes; format: in vivo, rat; details: amitriptyline alone i.p. every 150 min; at 90 and 240 min
Procedure: One week after their arrival, rats were anesthetized with sodium pentobarbital before exposing the common sciatic nerve. As described in Bennett's article, four chromic catgut (5-0) ligations were tied loosely proximally to the sciatic trifurcation (Bennett and Xie, 1988).
All behavioral assessments were conducted between 9 a.m. and 5 p.m. in a quiet room. An increasing pressure was applied to the right hind paw of SN-CCI (Sciatic Nerve-Chronic Constriction Injury) rat to evaluate hyperalgesia-like behavior (Viguier and al, 2013). Values correspond to the pressure threshold producing the paw withdrawal and then the vocalization of the rat.

[3] = test system: LPS-injected mice (neuro-inflammation); assay: LPS-induced model of neuro-inflammation (coat state score, weight loss); format: in vivo, mouse; details: amitriptyline 1 mg/kg ± mefloquine 1 mg/kg
Text: FIG. 13 represents the coat state scores evaluated three hours after treatment in a LPS-induced model of neuro-inflammation (left graph). The right graph represents the amount of weight loss between three hours of treatment and just before treatment in a LPS-induced model of neuro-inflammation (right graph). Control mice were ip injected with saline solution. […] In both graphs: n=4-6 mice per group, data are presented as means±SEM and compared with a One-way ANOVA followed by Tukey's post-hoc test, *p<0.05, […] versus CONTROL-treated mice.
Adult Swiss male mice were used in the LPS model. Mice were kept in collective cages for habituation to the facility for one week before experimental testing. Afterwards, they were housed in individual cages two days before the experiment started with food and water ad libitum. Mice were maintained on a light/dark cycle of 12 hours with light onset at 8h00 and with a controlled temperature of 21° C.±1° C. […]
Coat state score was evaluated three hours after treatment. […] The cleanness fur state was evaluated for each of these five body parts. […]
General physiological state of the animals was assessed by the normalised weight loss; defined as the difference between weight measures three hours after treatment (T0+24 h) and just before treatment (T0+21 h).

[4] = rats; cited from earlier work

CN(C)CCC=C1c2ccccc2CCc2ccccc21 [amitriptyline, 3-(5,6-dihydrodibenzo[2,1-b:2′,1′-f][7]annulen-11-ylidene)-N,N-dimethylpropan-1-amine]
HC activity (ethidium bromide uptake) after LPS-induced opening [1]: reversed this increase at the three tested doses | Paw withdrawal threshold [2]: did not induce significant effect on its own | Weight loss ([3]; between just before and three hours after oral treatment): induces a decrease in weight loss | Coat state score (grooming activity) ([3]; three hours after oral treatment, LPS 0.33 mg/kg i.p.): tendency to reduce the deterioration of coat state | Half-life [4]: 2.5 h
